We go through seven molecules from US12404232B2, “Compounds and compositions for intracellular delivery of therapeutic agents” (ModernaTX, Inc., priority 2015, dated 2025).

Where only a bound is given, the exact number is not on record here.

Series [1] has as its system mice. Kind of series: Luc expression (total flux) after intramuscular administration. Type of series: in vivo. The note with it: i.m., Luc, 6 h.
The nature of series [2]: Particle size and polydispersity index of nanoparticle compositions (Zetasizer Nano ZS). It is filed as physicochemical. The note with it: for PDI: nanoparticle composition 50:10:38.5:1.5 mol % (Table 1A); for Size (nm): nanoparticle composition lipid:DSPC:cholesterol:PEG-DMG 50:10:38.5:1.5 mol %, mRNA encoding Luc or hEPO (Table 1A). Put shortly: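 Formulations at 50:10:38.5:1.5 mol % (ionizable lipid, DSPC, cholesterol, PEG-DMG) encapsulating Luc or hEPO mRNA were measured in 1×PBS on a Zetasizer Nano ZS to give size and polydispersity index.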

For series [3], the system named is rats. Kind of series: Cytokine induction (IP-10) in rats after intravenous administration. Type of series: in vivo. Particulars: rat, 6 hours after administration of hEPO nanoparticle compositions, 2.0 mpk. The method, then: The expression of hEPO and cytokine induction in rats intravenously administered a nanoparticle composition at a dose of 2.0 mpk was measured at 6 h.
(§1) Table 19 summarizes the hEPO expression, IP-10 induction, liver and spleen levels, and alanine aminotransferase (ALT) and aspartate aminotransferase (AST) measured upon intravenous administration of formulations including Compounds 48, 49, and 50 to rat at 0.2 and 2 mpk and hEPO mRNA. hEPO concentrations were measured 6 hours after administration, while cytokine induction and liver and spleen levels were measured 48 hours after administration. hEPO and IP-10 concentrations are presented in pg/ml, while liver levels are provided in ng/g. ALT and AST levels are presented in international units.

For series [4], the system named is mice. Kind of series: Cytokine induction (IL-6, IP-10) in mice after intravenous administration. Type of series: in vivo. Details: IL-6 / IP-10: unit not given here. Particulars: 0.5 mpk, 6 hours. Put shortly:
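Nanoparticle compositions given intravenously to mice at 0.5 mpk; serum cytokine concentrations measured at 6 hours, with MC3 formulation and PBS as comparators.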

Series [5] has as its system mice. Put plainly: Luc expression (total flux) after intramuscular administration. Particulars: 6 hours after intramuscular administration, Luc mRNA and H10 mRNA. It is filed as in vivo.
Series [6] concerns rat. Kind of series: Clinical chemistry and hematology in rat after intravenous administration. Type of series: in vivo. On the set-up: unit not given here. The note with it: 2 mpk, 48 h post dose. The method, then:
Sample formulations of nanoparticle compositions including different lipids were administered intravenously to rat at a dose of 2 mpk. The expression of various clinical markers was evaluated at 48 h post dose and compared to that induced by administration of MC3 formulations or phosphate buffered saline (PBS).
as §1

In series [7] the test system is rats. Kind of series: Residual lipid levels in liver and spleen of rats (UPLC-MS quantification). It is filed as in vivo, rat. The note with it: rats, 2 mpk, 48 h; assuming 300 g rat and 15 g liver. As for the experimental part: At 48 h liver tissue was harvested for lipid quantification. To pre-weighed tissues, Milli-Q water was added (900 μL water per 100 mg tissue). Tissues were homogenized using an Omni probe homogenizer until uniform. 50 μL of samples and matrix calibration standards were aliquoted into a 96-well plate. 50 μL of blank matrix for matrix blanks and control blanks were aliquoted. 400 μL IS spiking solution were manually added to all samples except matrix blanks. 400 μL of 50:50 ACN:IPA were manually added to matrix blanks. The plate was covered and the samples vortexed and centrifuged for 5 minutes at >3000 rpm. 200 μL of the samples were transferred into a clean 96-well plate for analysis. Samples were analyzed on a Waters Acquity UPLC using a Higgins Analytical Clipeus C8 column ([…], 30×2.1 mm) and a gradient of either 70-95% or 60-95% (Mobile Phase A: 5 mM ammonium formate in 50:50:1 H2O:MeOH:formic acid; Mobile Phase B: 5 mM ammonium formate in 100:1 MeOH:formic acid) over 1.3 min at 1.2 mL/min (column temperature 55° C.). Detection was based on electrospray ionization (ESI) in positive mode using a Sciex API5500 Mass Spectrometer.
The expression of hEPO in rats intravenously administered a nanoparticle composition at a dose of 0.2 mpk or 2.0 mpk was measured at 6 hours. Table 16 summarize the ratio of hEPO expression levels using various nanoparticle compositions as compared to the hEPO expression level using MC3 formulation and the lipid levels in the liver measured 48 hours after administration, as described above. Tables 17 and 18 summarize the lipid levels in the liver and spleen measured 48 hours after administration of Compounds 28, 33, 53, and 54. Liver and spleen levels represent the average values calculated for 3 rats in each group. As is shown in Tables 17 and 18, less than 10% of Compounds 28, 33, 53, and 54 remained in the liver after 48 hours, while greater than 60% of MC3 remained.
as §1
The expression of hEPO induced by intravenous administration to rats of nanoparticle compositions at various doses was measured at 2, 4, 6, 8, 24, and 48 hour time points. FIGS. 3-6 respectively summarize the hEPO expression measured upon intravenous administration of formulations including Compounds 26, 18, 25, and MC3 to rat at various doses. The lipid levels of Compound 26 in the liver after 48 hours were about 19%.
The expression of hEPO and lipid levels in the liver and spleen in rats intravenously administered a nanoparticle composition at a dose of 0.2 mpk was measured at various timepoints. Compounds 18 and 25 were selected for comparison with MC3. Lipids were formulated according to the standard MC3 formulation described above. Rats were administered intravenously a single 0.2 mpk dose and expression monitored at 0.25, 0.5, 1, 2, 4, 8, 24, and 48 hours after administration.

The nature of series [8]: Encapsulation of RNA by the nanoparticle composition (QUANT-IT RIBOGREEN RNA assay). It is filed as physicochemical. Particulars: nanoparticle composition 50:10:38.5:1.5 mol % (Table 1A). The source says: The efficiency of encapsulation of a therapeutic and/or prophylactic describes the amount of therapeutic and/or prophylactic that is encapsulated or otherwise associated with a nanoparticle composition after preparation, relative to the initial amount provided. The encapsulation efficiency is desirably high (e.g., close to 100%). The encapsulation efficiency may be measured, for example, by comparing the amount of therapeutic and/or prophylactic in a solution containing the nanoparticle composition before and after breaking up the nanoparticle composition with one or more organic solvents or detergents. Fluorescence may be used to measure the amount of free therapeutic and/or prophylactic (e.g., RNA) in a solution. For the nanoparticle compositions described herein, the encapsulation efficiency of a therapeutic and/or prophylactic may be at least 50%, for example 50%, 55%, 60%, 65%, 70%, 75%, 80%, 85%, 90%, 91%, 92%, 93%, 94%, 95%, 96%, 97%, 98%, 99%, or 100%. In some embodiments, the encapsulation efficiency may be at least 80%. In certain embodiments, the encapsulation efficiency may be at least 90%.
For nanoparticle compositions including an RNA, a QUANT-IT™ RIBOGREEN® RNA assay (Invitrogen Corporation Carlsbad, CA) can be used to evaluate the encapsulation of an RNA by the nanoparticle composition. The samples are diluted to a concentration of approximately […] in a TE buffer solution (10 mM Tris-HCl, 1 mM EDTA, pH 7.5). 50 μL of the diluted samples are transferred to a polystyrene 96 well plate and either 50 μL of TE buffer or 50 μL of a 2% Triton X-100 solution is added to the wells. The plate is incubated at a temperature of 37° C. for 15 minutes. The RIBOGREEN® reagent is diluted 1:100 in TE buffer, and 100 μL of this solution is added to each well. The fluorescence intensity can be measured using a fluorescence plate reader (Wallac Victor 1420 Multilablel Counter; Perkin Elmer, Waltham, MA) at an excitation wavelength of, for example, about 480 nm and an emission wavelength of, for example, about 520 nm. The fluorescence values of the reagent blank are subtracted from that of each of the samples and the percentage of free RNA is determined by dividing the fluorescence intensity of the intact sample (without addition of Triton X-100) by the fluorescence value of the disrupted sample (caused by the addition of Triton X-100).
Initial studies were performed to compare the delivery efficiency of nanoparticle compositions including various compounds according to Formula (I), (IA), (II), (IIa), (IIb), (IIc), (IId) or (IIe). The cationic lipid MC3 is a current standard in the art. Accordingly, the standard MC3 formulation including about 50 mol % MC3, about 10 mol % DSPC, about 38.5 mol % cholesterol, and about 1.5 mol % PEG-DMG was used as a basis for this study. Nanoparticle compositions including DSPC as a phospholipid, cholesterol as a structural lipid, PEG-DMG as a PEG lipid, an RNA, and a compound according to Formula (I), (IA), (II), (IIa), (IIb), (IIc), (IId) or (IIe) selected from Compounds 1-159, 168-170, and 173-175 were prepared according to or via methods similar to those described in Examples 1 and 2. The ratios of the lipids were 50:10:38.5:1.5 mol % for the lipid according to Formula (I), (IA), (II), (IIa), (IIb), (IIc), (IId) or (IIe):DSPC:cholesterol:PEG-DMG. The RNA used was an mRNA encoding G5 luciferase (Luc) or G5 hEPO. Tables 1A-1B summarize the content and characteristics of the formulations. […]

As for `CCCCCCCCCOC(=O)CCCCCCCN(CCCCCCCC(=O)OC(CCCCCCCC)CCCCCCCC)CCCN1C(=O)CNC1=O` [Compound 174, Heptadecan-9-yl 8-((3-(2,5-dioxoimidazolidin-1-yl)propyl)(8-(nonyloxy)-8-oxooctyl)amino)octanoate], the “i.m. Lipid/MC3 0.01 mpk, Luc, 6h” value in series [1] was found to be 0.2. Moreover, in series [2], the PDI came out at 0.12 and the “Size (nm)” value is recorded as 61.4 nm.

As to `CCCCCCCCCOC(=O)CCCCCCCN(CCO)CCCCCCCOC(=O)C(CCCCCCCC)CCCCCCCC` [Compound 30, 7-((2-Hydroxyethyl)(8-(nonyloxy)-8-oxooctyl)amino)heptyl 2-octyldecanoate], in series [3], the “IP-10” value is on record as 214.5 pg/mL. In series [4], the IL-6 is on record as 152.51 and the IP-10 is listed as 1638.77. Further, in series [5], the “Total flux (p/s) 0.001 mpk Dose” value amounted to 2.47E+06 p/s and the “Total flux (p/s) 0.01 mpk Dose” value was determined as 3.77E+07 p/s. For the same molecule, in series [6], the “Alanine aminotransferase (Concentration)” value was 56, the “Aspartate aminotransferase (Concentration)” value (“Aspartate aminotransferase” for short) amounted to 95, the “Lymphocytes (Concentration)” value came out at 10408.5 and the “Monocytes (Concentration)” value amounted to 877. Further, the “Neutrophils (Concentration)” value in series [6] stood at 3195. In addition, the “% Lipid Remaining in liver, 48 h* 2 mpk” value in series [7] is reported as under 0.01%.

Consider `CCCCCCCCCOC(=O)CCCCCCCN(CCCCCCCC(=O)OC(CCCCCCCC)CCCCCCCC)CCCOC(=O)NC` [Compound 175, Heptadecan-9-yl 8-((3-((methylcarbamoyl)oxy)propyl)(8-(nonyloxy)-8-oxooctyl)amino)octanoate], for which, in series [8], the “EE (%)” value came out at 93.23%. Also, the “i.m. Lipid/MC3 0.01 mpk, Luc, 6h” value in series [1] was 0.1. In series [2], the PDI is 0.2 and the “Size (nm)” value was 65.4 nm.

As to `CCCCCC/C=C\COC(=O)CCCCCCCN(CCO)CCCCCCCC(=O)OC(CCCCCCCC)CCCCCCCC` [Compound 24, Heptadecan-9-yl (Z)-8_((2-hydroxyethyl) (8-(non-2-en-1-yloxy)-8-oxooctyl)amino)octanoate], the “IP-10” value in series [3] is given as 323.5 pg/mL. In addition, in series [4], the IL-6 is recorded as 163.53 and the IP-10 is on record as 1172.93. In series [5], the “Total flux (p/s) 0.001 mpk Dose” value stood at 3.78E+06 p/s and the “Total flux (p/s) 0.01 mpk Dose” value stood at 3.97E+07 p/s. In addition, in series [6], the “Alanine aminotransferase (Concentration)” value is reported as 51.5, the “Aspartate aminotransferase” value was found to be 90, the “Lymphocytes (Concentration)” value is listed as 14100 and the “Monocytes (Concentration)” value amounted to 1834. The “Neutrophils (Concentration)” value in series [6] turned out to be 1790.5. In addition, the “% Lipid Remaining in liver, 48 h* 2 mpk” value in series [7] was 0.016%.

As for `CCCCCCCCCN(CCO)CCCCCCCC(=O)OC(CCCCCCCC)CCCCCCCC` [Compound 3, Heptadecan-9-yl 8-((2-hydroxyethyl)(nonyl)amino)octanoate], the “IP-10” value in series [3] came to 542 pg/mL. Besides, in series [5], the “Total flux (p/s) 0.001 mpk Dose” value turned out to be 3.58E+06 p/s and the “Total flux (p/s) 0.01 mpk Dose” value worked out at 4.95E+07 p/s. Also, in series [6], the “Alanine aminotransferase (Concentration)” value is 53.5, the “Aspartate aminotransferase” value was 87.5, the “Lymphocytes (Concentration)” value turned out to be 12051 and the “Monocytes (Concentration)” value turned out to be 2103. In series [6], the “Neutrophils (Concentration)” value turned out to be 3388.5. Further, the “% Lipid Remaining in liver, 48 h* 2 mpk” value in series [7] was 14%.

In the case of `CCCCCCCCCOC(=O)CCCCCCCN(CCCCCCCC(=O)OC(CCCCCCCC)CCCCCCCC)CCCNc1c(N(C)C)c(=O)c1=O` [Compound 169, Heptadecan-9-yl 8-((3-((2-(dimethylamino)-3,4-dioxocyclobut-1-en-1-yl)amino)propyl)(8-(nonyloxy)-8-oxooctyl)amino)octanoate], the “i.m. Lipid/MC3 0.01 mpk, Luc, 6h” value in series [1] came out at 3.3. Further, in series [2], the PDI was 0.18 and the “Size (nm)” value stood at 75.4 nm.

`CCCCCCCCCOC(=O)CCCCCCCN(CCCCCCCC(=O)OC(CCCCCCCC)CCCCCCCC)CCCNC(=S)N(C)C` [Compound 111, Heptadecan-9-yl 8-((3-(3,3-dimethylthioureido)propyl)(8-(nonyloxy)-8-oxooctyl)amino)octanoate]: the “i.m. Lipid/MC3 0.01 mpk, Luc, 6h” value in series [1] stood at 4.9. Moreover, in series [2], the PDI was found to be 0.14 and the “Size (nm)” value was 79.3 nm.
